In the experiment the test system is CD8F1 mice, subcutaneous mammary adenocarcinoma, T/C%. The experiment in a line: NCI In Vivo Anticancer Drug Screen. Data for tumor model Mammary Adenocarcinoma CD8F1 (subcutaneous) in CD8F1. As to conditions: higher = larger tumour. The gist of the method:
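Compound-treated versus vehicle-treated mice with transplantable tumors; survival or tumor size compared as T/C.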

Setting [1] is: endpoint: median tumor weight (est.), dose: 12.5 mg/kg/injection, schedule: Q07DX005 (ip), vehicle: saline with Tween-80.
Where [2] appears, read: endpoint: median tumor weight (est.), dose: 25.0 mg/kg/injection, schedule: Q07DX005 (ip), vehicle: saline with Tween-80.
Setting [3] is: endpoint: median tumor weight (est.), dose: 50.0 mg/kg/injection, schedule: Q07DX005 (ip), vehicle: saline with Tween-80.
Setting [4] is: endpoint: median tumor weight (est.), dose: 100.0 mg/kg/injection, schedule: Q07DX005 (ip), vehicle: saline with Tween-80.
Where [5] appears, read: endpoint: median tumor weight (est.), dose: 200.0 mg/kg/injection, schedule: Q07DX005 (ip), vehicle: saline with Tween-80.
Setting [6] is: endpoint: median tumor weight (est.), dose: 400.0 mg/kg/injection, schedule: Q07DX005 (ip), vehicle: saline with Tween-80.

“And” between values parts separate entries of the source, which are not always exact repeats. Equal entries are not always repeated. Records with an inconclusive call do not appear.

For the molecule `N=C(N)SCc1c2ccccc2c(CSC(=N)N)c2ccccc12`, the T/C by setting is: (endpoint: median tumor weight (est.), dose: 50.0 mg/kg/injection, schedule: Q07DX005 (ip), vehicle: saline) 105 % of control and 119 % of control; (endpoint: median tumor weight (est.), dose: 100.0 mg/kg/injection, schedule: Q07DX005 (ip), vehicle: saline) 107 % of control; (endpoint: median tumor weight (est.), dose: 200.0 mg/kg/injection, schedule: Q07DX005 (ip), vehicle: saline) 25 % of control; (endpoint: median tumor weight change, dose: 50.0 mg/kg/injection, schedule: Q01DX001 (ip), vehicle: saline + alcohol) 77 % of control; (endpoint: median tumor weight change, dose: 50.0 mg/kg/injection, schedule: Q01DX001 (ip), vehicle: suspension in saline) 90 % of control; (endpoint: median tumor weight change, dose: 100.0 mg/kg/injection, schedule: Q01DX001 (ip), vehicle: saline + alcohol) 99 % of control. Besides, the T/C was 102 % of control and 111 % of control (endpoint: median tumor weight change, dose: 100.0 mg/kg/injection, schedule: Q01DX001 (ip), vehicle: suspension in saline); 58 % of control (endpoint: median tumor weight change, dose: 200.0 mg/kg/injection, schedule: Q01DX001 (ip), vehicle: saline + alcohol); 84 % of control and 86 % of control (endpoint: median tumor weight change, dose: 200.0 mg/kg/injection, schedule: Q01DX001 (ip), vehicle: suspension in saline); 31 % of control (endpoint: median tumor weight change, dose: 400.0 mg/kg/injection, schedule: Q01DX001 (ip), vehicle: saline + alcohol).
`CC(C)C(N)C(=O)Nc1nncs1` (stereo not given): the T/C runs as follows: (endpoint: median tumor weight change, dose: 125.0 mg/kg/injection, schedule: Q01DX001 (ip), vehicle: saline) 119 % of control; (endpoint: median tumor weight change, dose: 250.0 mg/kg/injection, schedule: Q01DX001 (ip), vehicle: saline) 171 % of control; (endpoint: median tumor weight change, dose: 500.0 mg/kg/injection, schedule: Q01DX001 (ip), vehicle: saline) 82 % of control; (endpoint: median tumor weight change, dose: 1000.0 mg/kg/injection, schedule: Q01DX001 (ip), vehicle: saline) 81 % of control.
Regarding `CC(C#N)(C#N)N=Nc1ccc(Cl)cc1Cl`, the T/C runs as follows: (endpoint: median tumor weight change, dose: 125.0 mg/kg/injection, schedule: Q01DX001 (ip), vehicle: saline with Tween-80) 161 % of control; (endpoint: median tumor weight change, dose: 500.0 mg/kg/injection, schedule: Q01DX001 (ip), vehicle: saline with Tween-80) 115 % of control; (endpoint: median tumor weight change, dose: 1000.0 mg/kg/injection, schedule: Q01DX001 (ip), vehicle: saline with Tween-80) 76 % of control.
In the case of `CN(C)C(=O)SC1=C(c2c(Cl)cccc2Cl)C(=O)c2ccccc21`, the T/C was 101 % of control and 115 % of control (endpoint: median tumor weight change, dose: 125.0 mg/kg/injection, schedule: Q01DX001 (ip), vehicle: Klucel (hydroxypropylcellulose) (HPC)); 98 % of control and 109 % of control (endpoint: median tumor weight change, dose: 250.0 mg/kg/injection, schedule: Q01DX001 (ip), vehicle: Klucel (hydroxypropylcellulose) (HPC)); 113 % of control (endpoint: median tumor weight change, dose: 500.0 mg/kg/injection, schedule: Q01DX001 (ip), vehicle: Klucel (hydroxypropylcellulose) (HPC)); 74 % of control and 75 % of control (endpoint: median tumor weight change, dose: 1000.0 mg/kg/injection, schedule: Q01DX001 (ip), vehicle: Klucel (hydroxypropylcellulose) (HPC)); 22 % of control and 38 % of control (endpoint: median tumor weight change, dose: 2000.0 mg/kg/injection, schedule: Q01DX001 (ip), vehicle: Klucel (hydroxypropylcellulose) (HPC)).
As for `CC[C@@]1(O)C[C@H](OC2CC(N(C)C)C(OC3CC(O)C(OC4CCC(=O)C(C)O4)C(C)O3)C(C)O2)c2c(cc3c(c2O)C(=O)c2c(O)ccc(O)c2C3=O)[C@H]1C(=O)OC` (stereo not given in full), the T/C by setting is: (endpoint: mean tumor weight, dose: 0.5 mg/kg/injection, schedule: Q07DX006 (ip), vehicle: water) 43 % of control; (endpoint: mean tumor weight, dose: 1.0 mg/kg/injection, schedule: Q07DX006 (ip), vehicle: water) 35 % of control; (endpoint: mean tumor weight, dose: 2.0 mg/kg/injection, schedule: Q07DX006 (ip), vehicle: water) 5 % of control; (endpoint: mean tumor weight, dose: 4.0 mg/kg/injection, schedule: Q07DX006 (ip), vehicle: water) 17 % of control; (endpoint: median tumor weight (est.), dose: 0.5 mg/kg/injection, schedule: Q07DX005 (ip), vehicle: water) 69 % of control and 90 % of control; (endpoint: median tumor weight (est.), dose: 1.0 mg/kg/injection, schedule: Q07DX005 (ip), vehicle: water) 83 % of control. Further, the T/C (endpoint: median tumor weight (est.), dose: 2.0 mg/kg/injection, schedule: Q07DX005 (ip), vehicle: water) is 37 % of control and 53 % of control; the T/C (endpoint: median tumor weight (est.), dose: 4.0 mg/kg/injection, schedule: Q07DX005 (ip), vehicle: water) was 8 % of control and 26 % of control; the T/C (endpoint: median tumor weight (est.), dose: 8.0 mg/kg/injection, schedule: Q07DX005 (ip), vehicle: water) was 1 % of control.
As for `Cc1c2ccc3ccccc3c2c[n+]2ccccc12`, the T/C by setting is: (endpoint: median tumor weight (est.), dose: 2.5 mg/kg/injection, schedule: Q07DX005 (ip), vehicle: Klucel (hydroxypropylcellulose) (HPC)) 84 % of control; (endpoint: median tumor weight (est.), dose: 5.0 mg/kg/injection, schedule: Q07DX005 (ip), vehicle: Klucel (hydroxypropylcellulose) (HPC)) 86 % of control; (endpoint: median tumor weight (est.), dose: 10.0 mg/kg/injection, schedule: Q07DX005 (ip), vehicle: Klucel (hydroxypropylcellulose) (HPC)) 83 % of control; (endpoint: median tumor weight (est.), dose: 20.0 mg/kg/injection, schedule: Q07DX005 (ip), vehicle: Klucel (hydroxypropylcellulose) (HPC)) 57 % of control.
As for `CN1CCN(Cc2nc3cccc4c3c([n+]2[O-])-c2ccccc2-4)CC1`, the T/C under setting [1] is 180 % of control; the T/C under setting [2] is 114 % of control; the T/C under setting [3] was 99 % of control; the T/C under setting [4] was 120 % of control; the T/C under setting [5] is 68 % of control.
Take `BrCCC1(CCBr)CCCCC1`: the T/C is 80 % of control (endpoint: median tumor weight change, dose: 125.0 mg/kg/injection, schedule: Q01DX001 (ip), vehicle: other); 79 % of control (endpoint: median tumor weight change, dose: 250.0 mg/kg/injection, schedule: Q01DX001 (ip), vehicle: other); 83 % of control (endpoint: median tumor weight change, dose: 500.0 mg/kg/injection, schedule: Q01DX001 (ip), vehicle: other); 109 % of control (endpoint: median tumor weight change, dose: 1000.0 mg/kg/injection, schedule: Q01DX001 (ip), vehicle: other); 119 % of control (endpoint: median tumor weight change, dose: 2000.0 mg/kg/injection, schedule: Q01DX001 (ip), vehicle: other).
Take `COc1cc2oc(=O)ccc2cc1[C@@H]1OC(=O)C2(C)O[C@@H]12` (stereo not given in full): the T/C is, setting by setting: (endpoint: median tumor weight (est.), dose: 0.94 mg/kg/injection, schedule: Q07DX005 (ip), vehicle: water) 174 % of control; (endpoint: median tumor weight (est.), dose: 3.75 mg/kg/injection, schedule: Q07DX005 (ip), vehicle: water) 101 % of control; (endpoint: median tumor weight (est.), dose: 7.5 mg/kg/injection, schedule: Q07DX005 (ip), vehicle: water) 105 % of control; (endpoint: median tumor weight (est.), dose: 15.0 mg/kg/injection, schedule: Q07DX005 (ip), vehicle: water) 124 % of control.
As for `CSCS(=O)C[C@H](CO)NC(=O)/C=C/c1c(C)[nH]c(=O)[nH]c1=O` (stereo not given in full), the T/C reads like this: (endpoint: median tumor weight (est.), dose: 0.12 mg/kg/injection, schedule: Q07DX005 (ip), vehicle: saline) 100 % of control; (endpoint: median tumor weight (est.), dose: 0.25 mg/kg/injection, schedule: Q07DX005 (ip), vehicle: saline) 76 % of control; (endpoint: median tumor weight (est.), dose: 0.5 mg/kg/injection, schedule: Q07DX005 (ip), vehicle: saline) 50 % of control; (endpoint: median tumor weight (est.), dose: 4.0 mg/kg/injection, schedule: Q07DX005 (ip), vehicle: saline) 10 % of control.
Turning to `COc1cccc2c1C(=O)c1c(O)c3c(c(O)c1C2=O)C[C@@](O)(C(O)CO)C[C@@H]3OC1CC(N(Cc2ccccc2)Cc2ccccc2)C(O)C(C)O1` (stereo not given in full), the T/C is 14 % of control (endpoint: median tumor weight change, dose: 62.0 mg/kg/injection, schedule: Q01DX001 (ip), vehicle: water) and -48 % of control (endpoint: median tumor weight change, dose: 125.0 mg/kg/injection, schedule: Q01DX001 (ip), vehicle: water).
As for `CCC(CC)COC(=O)c1ccccc1C(=O)OCC(CC)CC`, the T/C is 83 % of control under setting [2]; 65 % of control under setting [5]; 75 % of control under setting [6]; 64 % of control (endpoint: median tumor weight (est.), dose: 800.0 mg/kg/injection, schedule: Q07DX005 (ip), vehicle: saline with Tween-80).
`Ic1ncnc2c1ncn2C1CCCO1` (stereo not given): the T/C (endpoint: median tumor weight (est.), dose: 25.0 mg/kg/injection, schedule: Q07DX005 (ip), vehicle: Klucel (hydroxypropylcellulose) (HPC)) is 36 % of control; the T/C (endpoint: median tumor weight (est.), dose: 200.0 mg/kg/injection, schedule: Q07DX005 (ip), vehicle: Klucel (hydroxypropylcellulose) (HPC)) is 55 % of control and 64 % of control; the T/C (endpoint: median tumor weight (est.), dose: 400.0 mg/kg/injection, schedule: Q07DX005 (ip), vehicle: Klucel (hydroxypropylcellulose) (HPC)) is 41 % of control.
On to `CC1(CO)C(O)CCC2(C)C1CCC1CC3CC12CCC3(O)CO` (stereo not given), for which the T/C by setting is: under setting [1], 39 % of control; (endpoint: median tumor weight (est.), dose: 18.75 mg/kg/injection, schedule: Q07DX005 (ip), vehicle: saline with Tween-80) 53 % of control; under setting [2], 55 % of control; (endpoint: median tumor weight (est.), dose: 37.5 mg/kg/injection, schedule: Q07DX005 (ip), vehicle: saline with Tween-80) 85 % of control; under setting [3], 60 % of control; under setting [4], 58 % of control. In addition, the T/C under setting [5] is 92 % of control and the T/C under setting [6] was 13 % of control.

The values are drawn from PubChem BioAssay AID220 (DTP/NCI, 2004).
